In patent US12458020B2, “Synergistic herbicidal mixtures and compositions comprising triclopyr and phosphate ester adjuvants” (SBM Développement SAS, priority 2019, dated 2025):

Assays:
[1] = system: English ivy (Hedera helix); assay: Field trial of triclopyr plus phosphate ester adjuvants on English ivy plots (Example 2); format: in vivo; settings: triclopyr by itself, 0.55% w/v; single application
Procedure: The objective of the trial was to measure the effects of adjuvants in the same class of chemistry in the control of the evasive weed species English ivy (Hedera helix). The trial was conducted in a recreational setting at a golf course. Plots were 2×2 meters and the treatments consisted of triclopyr in the form of BioAdvanced Brush Killer Plus® 8.8% triclopyr mixed to a 0.55% w/v concentration for all the treatments, and various adjuvants treated at 0.5% ai/v (i.e., % w/v of the active ingredient) (Table 2). Controls included an untreated check group. All treatments and controls were repeated in triplicate (i.e., three plots per group). The plots were treated at the standard rate of 2 gal of mixed product per 1000 square feet. The plots were rated for the percent English Ivy in each plot. […] Trial was observed over time for the presence of English ivy in each plot.

[2] = system: brush (e.g., poison ivy, poison oak, black berries, etc.); assay: Field trial of residual control of brush, rated as bare ground (Example 3); format: in vivo; settings: triclopyr alone at 0.275, 0.55 and 0.8% ai/v
Procedure: The objective of the trial was to determine the effects of concentration and adjuvant on triclopyr and its residual control of brush. The trial was conducted in a recreational setting at a golf course. Plots were 1×1 meters and the treatments comprised BioAdvanced Brush Killer Plus® (8.8% triclopyr) mixed to 0.275% ai/v with various adjuvants treated at 0.1% ai/v (i.e., % weight of the active ingredient per volume) (Table 3), Controls included an untreated check group and triclopyr alone at three concentrations (0.275, 0.55, and 0.8% ai/v). All treatments and controls were repeated in triplicate (i.e., three plots per group). The plots were treated at the standard rate of 2 gal of mixed product per 1000 square feet. The plots were rated for the percent of brush (e.g., poison ivy, poison oak, black berries, etc.) in each plot. […] The observations were based upon the amount of clear area (without vegetation) in each plot.

## O=C(O)COc1nc(Cl)c(Cl)cc1Cl [triclopyr, 3,5,6-Trichloro-2-pyridinyloxyacetic acid]
[1]
  control of the English ivy: about 53%
[2]
  residual efficacy on brush as a function of triclopyr concentration: the higher the concentration of the triclopyr the longer the residual efficacy
